Here are results for 13 compounds from patent US9670242B2, “Tetracyclic anthraquinone derivatives” (Tianjin Hemay Bio-Tech Co., Ltd, priority 2012, dated 2017).

What all share (type): cell-based, human
One test has as its system BxPc-3 cells. Briefly: BxPc-3 cell growth inhibition test (MTT assay). Conditions: growth inhibition at 2000 nM, 70 h. The method, then: BxPc-3 Cell Growth Inhibition Test (MTT Assay)
Cell strains: BxPC-3 (human pancreatic cancer cell strains); MTT; antitumor compounds; DMSO.
(§1) II. Reagents and Consumable Materials
(§2) Culture medium: 90% RPMI-1640+10% FBS; Pancreatin (0.25% (w/v) solution was formulated with PBS, 0.53 mM of EDTA was added in the formulation); PBS; 96-well culture plate.
(§3) 1. A plate (10 cm) of cells in logarithmic growth phase that were normally cultured was collected;
(§4) 2. The culture solution was sucked out. The plate was washed with 5 mL of PBS once or twice;
(§5) 3. PBS was sucked out. 1.5 mL of 0.25% pancreatin was added to infiltrate the cells;
4. The culture plate was placed in an incubator. Digestion was carried out for about 8 min at 37° C.;
5. 4.5 mL of complete culture solution was added to the culture plate to stop the digestion. The cells were carefully scoured with micropipette (1 ml) to give a uniform cell suspension. The suspension was implanted into a 96-well cell culture disc by 5000 cells/100 μL per well. The culture plate was incubated overnight under 5% CO2 at 37° C. In day 2, 100 μL of culture solution comprising a compound was added in each well. The plate was further incubated for 70 h under 5% CO2 at 37° C.;
(§6) 6. The culture solution was sucked out;
(§7) 7. 100 μL of serum-free culture solution containing 0.5 mg/mL MTT was added in each well. The plate was incubated for 3 h;
(§8) 8. The culture solution was carefully sucked out;
(§9) 9. 100 μL of DMSO was added into each well and vibrated to dissolve;
(§10) 10. OD values were determined at 490 nM.
(§11) IV. Results and Treatments
(§12) 1. Calculation of Relative Inhibition Ratio The inhibition ratio of a compound on cell growth=(PC−n)/(PC−NC)×100%
(§13) PC: OD values of cells after normal growth in control wells without a compound;
(§14) n: OD values of cells after growth in test wells with a compound;
(§15) NC: Background OD values of blank wells without a compound and cells.
In general terms: Tetrazolium dyes change colour on reduction, which living cells bring about.

A further test relates to NCI-H446 cells. Briefly: NCI-H446 cell growth inhibition test (MTT assay). As to conditions: growth inhibition at 222 nM, 70 h. The method, then:
NCI-H446 Cell Growth Inhibition Test (MTT Assay)
Cell strains: NCI-H446 (human small cell lung cancer cell strains); MTT; antitumor compounds; DMSO.
as §1, §2, §3, §4, §5
4. The culture plate was placed in an incubator. Digestion was carried out for about 3 min at 37° C.;
5. 3 mL of complete culture solution was added to the culture plate to stop the digestion. The cells were carefully scoured with micropipette (1 ml) to give a uniform cell suspension. The suspension was implanted into a 96-well cell culture disc by 4000 cells/100 μL per well. The culture plate was incubated overnight under 5% CO2 at 37° C. In day 2, 100 μL of culture solution comprising a compound was added in each well. The plate was further incubated for 70 h under 5% CO2 at 37° C.;
as §6, §7, §8, §9, §10, §11, §12, §13, §14, §15

Another test deals with SK-OV-3 cells. Briefly: SK-OV-3 cell growth inhibition test (MTT assay). Conditions: growth inhibition at 667 nM, 69 h. The method, then: SK-OV-3 Cell Growth Inhibition Test (MTT Assay)
Cell strains: SK-OV-3 (human ovarian cancer cell strains); MTT; antitumor compounds; DMSO.
as §1
Culture medium: 90% McCoy's 5A+10% FBS; Pancreatin (0.25% (w/v) solution was formulated with PBS, 0.53 mM of EDTA was added in the formulation); PBS; 96-well culture plate.
as §3, §4, §5
4. The pancreatin was sucked out. The culture plate was placed in an incubator. Digestion was carried out for about 5 min at 37° C.;
5. 4.5 mL of complete culture solution was added to the culture plate to stop the digestion. The cells were carefully scoured with micropipette (1 ml) to give a uniform cell suspension. The suspension was implanted into a 96-well cell culture disc by 4000 cells/100 μL per well. The culture plate was incubated overnight under 5% CO2 at 37° C. In day 2, 100 μL of culture solution comprising a compound was added in each well. The plate was further incubated for 69 h under 5% CO2 at 37° C.;
as §6, §7, §8
9. 100 μL of DMSO was added in each well and vibrated to dissolve;
as §10, §11, §12, §13, §14, §15

The next test has as its system MDA-MB-453 cells. Briefly: MDA-MB-453 cell growth inhibition test (SRB assay). As to conditions: growth inhibition at 2000 nM, 69.5 h. How it is done:
MDA-MB-453 Cell Growth Inhibition Test (SRB Assay)
Cell strains: MDA-MB-453 (human breast cancer cell strains); SRB: 0.4% (w/v) working solution was formulated with 1% glacial acetic acid, reserved at 4° C.; antitumor compounds; DMSO.
as §1
Culture medium: 90% L15+10% FBS; pancreatin (0.25% (w/v) solution was formulated with PBS, 0.53 mM of EDTA was added in the formulation); PBS; 96-well culture plate.
as §3, §4
(§16) 3. 1.5 mL of 0.25% pancreatin was added to the plate to infiltrate the cells;
(§17) 4. The pancreatin was sucked out. The culture plate was placed in an incubator. Digestion was carried out for about 3 min at 37° C.;
5. 4 mL of complete culture solution was added to the culture plate to stop the digestion. The cells were carefully scoured with micropipette (1 ml) to give a uniform single cell suspension. The suspension was implanted into a 96-well cell culture plate by 7000 cells/100 μL per well. The culture plate was incubated overnight under 5% CO2 at 37° C. In day 2, 100 μL of culture solution comprising a compound was added in each well.
The plate was further incubated for 69.5 h under 5% CO2 at 37° C.;
(§18) 6. The culture solution was sucked out. 100 uL of TCA fixed cells which were diluted to 10% were added to each well. The plate was kept in a refrigerator for 1 h at 4° C.
(§19) 7. TCA stationary liquid was sucked out. Each well was washed with 150 μL of ddH2O five times;
(§20) 8. After the stationary liquid was cleansed, the plate was dried in the air at the room temperature;
(§21) 9. 60 μL of SRB staining solution was added in each well. The well was stained for 15 min at the room temperature;
(§22) 10. The SRB staining solution was sucked out. Each well was washed with 150 μL of 1% glacial acetic acid five times;
(§23) 11. After the SRB staining solution was cleansed, the plate was dried in the air at the room temperature;
(§24) 12. 100 μL of 10 mM Tris was added in each well. The plate was vibrated to dissolve out SRB;
(§25) 13. OD values were determined at 570 nM.
as §11, §12, §13, §14, §15
(In general: Sulforhodamine B stains cellular protein and so reports cell mass.)

For the next test, the system named is 22Rv1 cells. The test is described as follows: 22Rv1 cell growth inhibition test (SRB assay). As to conditions: growth inhibition at 222 nM, 73 h. The method, then:
22Rv1 Cell Growth Inhibition Test (SRB Assay)
Cell strains: 22Rv1 (human prostate cancer cell strains); SRB: 0.4% (w/v) working solution was formulated with 1% glacial acetic acid, reserved at 4° C.; antitumor compounds; DMSO.
as §1, §2, §3, §4, §16, §17
5. 4 mL of complete culture solution was added to the culture plate to stop the digestion. The cells were carefully scoured with micropipette (1 ml) to give a uniform single cell suspension. The suspension was implanted into a 96-well cell culture plate by 7000 cells/100 μL per well. The culture plate was incubated overnight under 5% CO2 at 37° C. In day 2, 100 μL of culture solution comprising a compound was added in each well. The plate was further incubated for 73 h under 5% CO2 at 37° C.;
as §18, §19, §20, §21, §22, §23, §24, §25, §11, §12, §13, §14, §15

Regarding `COc1cccc2c1C(=O)c1c(O)c3c(c(O)c1C2=O)CC(O)(C(=O)COC(=O)CCCC(=O)NCCc1ccccn1)CC3OC1CC(n2cccc2)C(O)C(C)O1` (stereo not drawn) [Example 35], the “Inhibition Ratio (%)” value is 81.3% with BxPc-3 cells; 57.2% in the test with NCI-H446 cells; 57.8% in the test on SK-OV-3 cells; 77.1% in the test with MDA-MB-453 cells; 58.5% in the test on 22Rv1 cells.
Regarding `COc1cccc2c1C(=O)c1c(O)c3c(c(O)c1C2=O)CC(O)(C(=O)COC(=O)CCC(=O)NCCc1ccncc1)CC3OC1CC(n2cccc2)C(O)C(C)O1` (stereo not drawn) [Example 32], the “Inhibition Ratio (%)” value was 83.4% in the test with BxPc-3 cells; 59.3% in the test with NCI-H446 cells; 59.7% in the test with SK-OV-3 cells; 78.3% in the test with MDA-MB-453 cells; 61.7% in the test on 22Rv1 cells.
For the compound `COc1cccc2c1C(=O)c1c(O)c3c(c(O)c1C2=O)CC(O)(C(=O)COC(=O)CCC(=O)NCCO)CC3OC1CC(n2cccc2)C(O)C(C)O1` (stereo not drawn) [Example 60], the “Inhibition Ratio (%)” value with BxPc-3 cells came out at 83.4%; with NCI-H446 cells it was 52.5%; in the test with SK-OV-3 cells, 58.9%; with MDA-MB-453 cells it was 76.3%; in the test with 22Rv1 cells, 52.9%.
Take `COc1cccc2c1C(=O)c1c(O)c3c(c(O)c1C2=O)CC(O)(C(=O)COC(=O)CCC(=O)NCCCN1CCCC1)CC3OC1CC(n2cccc2)C(O)C(C)O1` (stereo not drawn) [Example 18]: the “Inhibition Ratio (%)” value in the test with BxPc-3 cells came to 70.7%; with SK-OV-3 cells it was 47.4%.
With `COc1cccc2c1C(=O)c1c(O)c3c(c(O)c1C2=O)CC(O)(C(=O)COC(=O)CCC(=O)NN1CCN(C)CC1)CC3OC1CC(n2cccc2)C(O)C(C)O1` (stereo not drawn) [Example 14], the “Inhibition Ratio (%)” value in the test on BxPc-3 cells worked out at 81.8%; in the test with SK-OV-3 cells, 53.6%; in the test on MDA-MB-453 cells, 74.4%; with 22Rv1 cells, 52.1%.
`COc1cccc2c1C(=O)c1c(O)c3c(c(O)c1C2=O)CC(O)(C(=O)COC(=O)CCC(=O)NS(=O)(=O)c1ccccc1)CC3OC1CC(n2cccc2)C(O)C(C)O1` (stereo not drawn) [Example 95]: the “Inhibition Ratio (%)” value is listed as 80.6% with BxPc-3 cells, 66.3% in the test on SK-OV-3 cells, 68.2% with MDA-MB-453 cells and 51.3% with 22Rv1 cells.
With `COc1cccc2c1C(=O)c1c(O)c3c(c(O)c1C2=O)CC(O)(C(=O)COC(=O)CCCC(=O)Nc1ccc(CN2CCOCC2)cc1)CC3OC1CC(n2cccc2)C(O)C(C)O1` (stereo not drawn) [Example 3], the “Inhibition Ratio (%)” value in the test with BxPc-3 cells is 81.2%; in the test with NCI-H446 cells it was 60.8%; in the test on SK-OV-3 cells, 62.5%; in the test on MDA-MB-453 cells it was 73.9%; in the test on 22Rv1 cells, 61.9%.
Regarding `COc1cccc2c1C(=O)c1c(O)c3c(c(O)c1C2=O)CC(O)(C(=O)COC(=O)CCC(=O)NN1CCOCC1)CC3OC1CC(n2cccc2)C(O)C(C)O1` (stereo not drawn) [Example 10], the “Inhibition Ratio (%)” value in the test on BxPc-3 cells is listed as 85%; in the test on NCI-H446 cells, 61.1%; with SK-OV-3 cells it was 71.5%; in the test on MDA-MB-453 cells, 78.5%; in the test on 22Rv1 cells, 62.7%.
`COc1cccc2c1C(=O)c1c(O)c3c(c(O)c1C2=O)CC(O)(C(=O)COC(=O)CCC(=O)N1CCN(CCCN(C)C)CC1)CC3OC1CC(n2cccc2)C(O)C(C)O1` (stereo not drawn) [Example 44]: the “Inhibition Ratio (%)” value with BxPc-3 cells is recorded as 78.5%; in the test with NCI-H446 cells, 46.3%; in the test on SK-OV-3 cells it was 52.3%; in the test on MDA-MB-453 cells it was 68.5%; in the test with 22Rv1 cells, 48.5%.
The matching figures for `COc1cccc2c1C(=O)c1c(O)c3c(c(O)c1C2=O)CC(O)(C(=O)COC(=O)CCC(=O)NCCc1ccccn1)CC3OC1CC(n2cccc2)C(O)C(C)O1` (stereo not drawn) [Example 34]: 84%, 60.7%, 59.4%, 80.5% and 63.3%.
The matching figures for `COc1cccc2c1C(=O)c1c(O)c3c(c(O)c1C2=O)CC(O)(C(=O)COC(=O)CCC(=O)Nc1cccnc1)CC3OC1CC(n2cccc2)C(O)C(C)O1` (stereo not drawn) [Example 24]: 84.7%, 61.8%, 61.4%, 79.8% and 63.6%.
The matching figures for `COc1cccc2c1C(=O)c1c(O)c3c(c(O)c1C2=O)CC(O)(C(=O)COC(=O)CCC(=O)NCc1ccncc1)CC3OC1CC(n2cccc2)C(O)C(C)O1` (stereo not drawn) [Example 26]: 82.7%, 66.9%, 67.6%, 79.9% and 60.8%.
Turning to `COc1cccc2c1C(=O)c1c(O)c3c(c(O)c1C2=O)CC(O)(C(=O)COC(=O)CCC(=O)NCc1cccnc1)CC3OC1CC(n2cccc2)C(O)C(C)O1` (stereo not drawn) [Example 28], the “Inhibition Ratio (%)” value with BxPc-3 cells worked out at 84.7%; with NCI-H446 cells, 65.8%; in the test on SK-OV-3 cells, 66.2%; with MDA-MB-453 cells, 81.9%; in the test on 22Rv1 cells it was 63.1%.
